From the NIST ThermoML archive (doi:10.1021/je500917k)

Experiment: xn = mol fraction of the nth substance listed
Details: 100 kPa, Liquid; for speed of sound: Frequency=2 MHz

CCNCCO [2-(ethylamino)ethanol] + CCN1CCCC1=O
Details	mass density [kg/m3]	speed of sound [m/s]	viscosity [mPa·s]
293.15 K, x2 = 0	917.79	1442.4	15.28
293.15 K, x2 = 0.111	925.54	1444.5	10.35
293.15 K, x2 = 0.2179	933.77	1448.8	7.447
293.15 K, x2 = 0.3242	941.8	1453.7	5.665
293.15 K, x2 = 0.4274	949.86	1459.7	4.571
293.15 K, x2 = 0.5359	958.36	1468	3.849
293.15 K, x2 = 0.6269	965.64	1473.3	3.126
293.15 K, x2 = 0.7225	973.71	1482	2.717
293.15 K, x2 = 0.8177	981.7	1491.1	2.458
293.15 K, x2 = 0.9095	989.6	1501	2.261
303.15 K, x2 = 0	909.82	1408.3	9.59
303.15 K, x2 = 0.111	917.42	1409.8	6.874
303.15 K, x2 = 0.2179	925.53	1413.7	5.212
303.15 K, x2 = 0.3242	933.46	1418.1	4.093
303.15 K, x2 = 0.4274	941.44	1423.5	3.257
303.15 K, x2 = 0.5359	949.89	1431.6	2.917
303.15 K, x2 = 0.6269	957.14	1436.5	2.458
303.15 K, x2 = 0.7225	965.19	1445	2.205
303.15 K, x2 = 0.8177	973.17	1453.7	2.013
303.15 K, x2 = 0.9095	981.06	1463.3	1.891
313.15 K, x2 = 0	901.79	1374.5	6.406
313.15 K, x2 = 0.111	909.24	1375.4	4.824
313.15 K, x2 = 0.2179	917.23	1378.8	3.79
313.15 K, x2 = 0.3242	925.07	1382.8	3.092
313.15 K, x2 = 0.4274	932.99	1387.9	2.609
313.15 K, x2 = 0.5359	941.38	1395.5	2.311
313.15 K, x2 = 0.6269	948.61	1400	1.979
313.15 K, x2 = 0.7225	956.65	1408.2	1.834
313.15 K, x2 = 0.8177	964.63	1416.7	1.684
313.15 K, x2 = 0.9095	972.5	1425.7	1.578
323.15 K, x2 = 0	893.68	1340.9	4.527
323.15 K, x2 = 0.111	900.98	1341.1	3.563
323.15 K, x2 = 0.2179	908.86	1344.1	2.873
323.15 K, x2 = 0.3242	916.63	1347.7	2.399
323.15 K, x2 = 0.4274	924.49	1352.5	2.053
323.15 K, x2 = 0.5359	932.84	1359.8	1.833
323.15 K, x2 = 0.6269	940.06	1364.2	1.664
323.15 K, x2 = 0.7225	948.09	1372	1.547
323.15 K, x2 = 0.8177	956.06	1380	1.435
323.15 K, x2 = 0.9095	963.93	1388.8	1.367

CCN1CCCC1=O [1-ethyl-2-pyrrolidinone] + CNCCO
Details	mass density [kg/m3]	speed of sound [m/s]	viscosity [mPa·s]
293.15 K, x1 = 0.0905	947.11	1479.8	9.188
293.15 K, x1 = 0.1825	953.11	1478.5	6.79
293.15 K, x1 = 0.2767	958.92	1478.5	5.162
293.15 K, x1 = 0.3731	964.75	1480.1	4.095
293.15 K, x1 = 0.4713	970.4	1483.1	3.496
293.15 K, x1 = 0.5725	975.84	1486.9	2.951
293.15 K, x1 = 0.6756	981.28	1491.4	2.648
293.15 K, x1 = 0.7808	986.73	1497.9	2.358
293.15 K, x1 = 0.8888	992.12	1504.7	2.231
293.15 K, x1 = 1	997.71	1512.1	2.117
303.15 K, x1 = 0.0905	939.11	1447.2	6.239
303.15 K, x1 = 0.1825	944.94	1445.2	4.715
303.15 K, x1 = 0.2767	950.62	1444.1	3.747
303.15 K, x1 = 0.3731	956.31	1444.9	3.068
303.15 K, x1 = 0.4713	961.92	1447.3	2.666
303.15 K, x1 = 0.5725	967.33	1450.6	2.339
303.15 K, x1 = 0.6756	972.75	1454.6	2.125
303.15 K, x1 = 0.7808	978.18	1460.6	1.94
303.15 K, x1 = 0.8888	983.56	1467	1.83
303.15 K, x1 = 1	989.14	1474.2	1.771
313.15 K, x1 = 0.0905	931.05	1414.1	4.394
313.15 K, x1 = 0.1825	936.73	1411.3	3.488
313.15 K, x1 = 0.2767	942.28	1409.4	2.89
313.15 K, x1 = 0.3731	947.87	1409.5	2.409
313.15 K, x1 = 0.4713	953.42	1411.6	2.123
313.15 K, x1 = 0.5725	958.78	1414.3	1.914
313.15 K, x1 = 0.6756	964.1	1418	1.776
313.15 K, x1 = 0.7808	969.61	1423.5	1.639
313.15 K, x1 = 0.8888	974.99	1429.4	1.546
313.15 K, x1 = 1	980.56	1436	1.518
323.15 K, x1 = 0.0905	922.92	1381	3.293
323.15 K, x1 = 0.1825	928.44	1377.6	2.683
323.15 K, x1 = 0.2767	933.89	1375.1	2.267
323.15 K, x1 = 0.3731	939.38	1374.6	1.943
323.15 K, x1 = 0.4713	944.88	1376.1	1.747
323.15 K, x1 = 0.5725	950.21	1378.3	1.58
323.15 K, x1 = 0.6756	955.61	1381.7	1.478
323.15 K, x1 = 0.7808	961.03	1386.8	1.41
323.15 K, x1 = 0.8888	966.4	1392.3	1.331
323.15 K, x1 = 1	971.96	1398.5	1.299
